Read-outs that look alike come from different tables or passages of the source.
Assays:
phospho-p38 = assay: Western blot, phospho-p38 expression; format: cell-based, human; details: SH-SY5Y cells
Experimental: (§1) The incubator was maintained at a temperature of 37° C., and a mixed gas of 95% air and 5% CO2 was continuously supplied thereto to provide suitable conditions for cell culture. The cells were cultured in a 6-well plate or a 96-well plate at each of densities of 1×10^6 and 2×10^4 cells/well 24 hours before the experiment. […] Sulfuretin was used in ethanol and used at a final concentration of 0.1% or less.
In order to identify the effect of sulfuretin on the expression of proteins related to dementia, Alzheimer's disease, Parkinson's disease and strokes, a Western blot test was carried out.
After 24 hours, the supernatant of each well was collected and centrifuged at 400 g for 3 minutes, and the cells were washed with cold PBS and lysed with 100 μl of T-PER lysis buffer (Thermo, USA) for 30 minutes. The lysates were centrifuged at 10000 g at 4° C. for 15 minutes, and the supernatants were stored at […] until use as test samples. Proteins were quantitatively analyzed using a BCA assay kit (Thermo, USA) and separated within 8.5-12% SDS gel and then transferred to PVDF membranes. To examine the expression of the proteins, the development of fluorescence was analyzed by enhanced chemiluminescence (ECL). Specifically, the membrane was blocked with 5% skimmed non-fat milk for 1 hour and labeled with the primary antibodies, PARP, caspase-3, phospho-p38, phospho-JNK and β-actin at 4° C. overnight. Then, the membrane was washed three times with Tris-tween buffered saline (TTBS), and then labeled with horseradish peroxidase (HRP)-conjugated anti-rabbit and anti-mouse secondary antibodies at room temperature for 1 hour. Then, the membrane was washed five times with TTBS for 10 minutes. The washed film was developed by ECL using x-ray films, and concentrations were quantitatively analyzed using quantitative analysis program (Fujifilm, Japan).

β-CTF = assay: Western blot, β-CTF level; format: cell-based, human; details: Swedish APP mutant SH-SY5Y cells; sulfuretin 2.5, 5, 10 and 20 μM for 24 h; dose-dependent (p<0.001)
Experimental: For the experiments shown in FIGS. 11 to 13, SH-SY5Y and stable swedish APP mutant SH-SY5Y cells were grown in DMEM supplemented with 10% heat-inactivated FBS and 0.1% penicillin/streptomycin at 37° C. in a humidified atmosphere of 5% CO2 and 95% air. Cells were fed every three days and sub-cultured once they reached 80-90% confluency in […] cell culture dishes. Amyloid beta25-35 was prepared as a 20 mM stock immediately before use and diluted in PBS to the indicated final concentration. Prior to use, amyloid beta25-35 was dissolved in sterilized distilled water and was aggregated at 37° C. for five days. The test compounds were dissolved in DMSO and the stock solutions were added directly to the culture media to a final concentration of 0.1% (v/v) DMSO.
SH-SY5Y and stable swedish APP mutant SH-SY5Y cells (1×10^6 cells/well in 6-well plates) were incubated at 37° C. with or without 20 μM amyloid beta 25-35 for 6 or 24 h, with or without sulfuretin pretreatment, and then washed and harvested with ice-cold PBS and centrifuged at 400×g for 3 minutes. […] The protein concentration was determined using a protein assay kit (Thermo Scientific). […] Protein bands were quantified by densitometric analysis using Image Gauge 4.0 software (Fujifilm, Stamford, Conn., USA). […]

SH-SY5Y cells = assay: MTT (cell viability) test, induced cell death in SH-SY5Y cells; details: Homo sapiens, SH-SY5Y; for viability at 0.1 µg/mL: sulfuretin 0.1 μg/ml; for viability at 0.5 µg/mL: sulfuretin 0.5 μg/ml; for viability at 1 µg/mL: sulfuretin 1 μg/ml; for viability at 5 µg/mL: sulfuretin 5 μg/ml
Experimental: as §1
To measure cell viability, an MTT reduction assay was used. An MTT solution was added to each well of the 96-well plate (in which the cells have been cultured) to a final concentration of 0.5 mg/ml. The plate was incubated in an incubator for 2 hours, and the medium and the MIT solution were removed, after which DMSO was added thereto and stirred. When DMSO was completely dissolved, the UV absorbance at 540 nm was measured using a microplate reader (Molecular device, USA).
The measured absorbance was substituted into the following equation to calculate cell viability:
Cell viability (%)=[(O.D. of control−O.D. of test group)/O.D. of control]×100

[1] = read-out: cell viability, 6-hydroxydopamine-induced cell death
[2] = read-out: cell viability, beta-amyloid-induced cell death
[3] = read-out: cell viability, hydrogen peroxide-induced cell death

Compound O=C1/C(=C/c2ccc(O)c(O)c2)Oc2cc(O)ccc21 [sulfuretin] has a phospho-p38 expression (phospho-p38; hydrogen peroxide + sulfuretin 0.1 μg/ml) of no more than 157%, a phospho-p38 expression (phospho-p38; hydrogen peroxide + sulfuretin 0.5 μg/ml) of no more than 133% and a phospho-p38 expression (phospho-p38; hydrogen peroxide + sulfuretin 1 μg/ml) of no more than 53%. For the same compound, the β-CTF level (β-CTF) was “significantly inhibited”, the viability at 0.1 µg/mL (SH-SY5Y cells; [1]) was no less than 87% and the viability at 0.5 µg/mL (SH-SY5Y cells; [1]) was no less than 97%. For the same compound, the viability at 1 µg/mL (SH-SY5Y cells; [1]) was no less than 112%, the viability at 5 µg/mL (SH-SY5Y cells; [1]) was no less than 140% and the viability at 0.1 µg/mL (SH-SY5Y cells; [2]) was no less than 58%. For the same compound, the viability at 0.5 µg/mL (SH-SY5Y cells; [2]) was no less than 64%, the viability at 1 µg/mL (SH-SY5Y cells; [2]) was no less than 80% and the viability at 5 µg/mL (SH-SY5Y cells; [2]) was no less than 97%. The viability at 0.1 µg/mL (SH-SY5Y cells; [3]) was no less than 74%, the viability at 0.5 µg/mL (SH-SY5Y cells; [3]) was no less than 97% and the viability at 1 µg/mL (SH-SY5Y cells; [3]) was no less than 119%. For the same compound, the viability at 5 µg/mL (SH-SY5Y cells; [3]) was no less than 103%.

Reference: patent US20150031760A1, “PHARMACEUTICAL COMPOSITION FOR PREVENTING OR TREATING NERVOUS SYSTEM DISORDERS COMPRISING SULFURETIN OR PHARMACEUTICALLY ACCEPTABLE SALT THEREOF” (Research and Business Foundation SUNGKYUNKWAN UNIVERSITY, priority 2010, published 2015)
